Reference: patent US9809623B2, “α4β7 peptide monomer and dimer antagonists” (Protagonist Therapeutics, Inc., priority 2014, dated 2017)
Read-outs that look alike come from different tables or passages of the source. Numbered stars: 1 amine (or outer) side, 2 acyl side, 3 side chain; on linkers, the order of the positions; unused ones are H or OH. Bridge positions count the residues as written; N and C are the ends. Square brackets hold non-standard residues; d marks the D form. Peptide text beside a SMILES is read from it. I, II: the chains in the order shown. ξ: configuration not given here. Phe(4-tBu) = CC(C)(C)c1ccc(C[C@H](N)C(=O)O)cc1; Diglycolyl = O=C(COCC(=O)[*:2])[*:1]; NMeR = CN[C@@H](CCCNC(=N)N)C(=O)O; β3hE = N[C@@H](CCC(=O)O)CC(=O)O; Thr(3ξ) = CC(O)[C@H](N)C(=O)O; Pen = CC(C)(S)[C@H](N)C(=O)O

Assays:
α4β1 = α4β1 (Homo sapiens, UniProt P05556+P13612); assay: PBMC Memory T Cell Adhesion Assay, adhesion to VCAM-1; type: cell-based; conditions: memory T cells isolated from human PBMC donors; read-out: IC50 (nM), memory T cells, Integrin α4β1, Ligand VCAM-1
Procedure: Fresh CD4+/CD45RO+ memory T cells were isolated from human peripheral blood mononuclear cell (PBMC) donors by Aragen Bioscience Inc. (Morgan Hill, Calif.). The assay plate was prepared using IgG Fc capture antibody (donkey anti human) immobilized at 500 ng/well in 50 mM sodium bicarbonate buffer, pH 9.5, ON, 4C onto a Greiner Fluotrac plate (100 ul per well). The plate was rinsed two time with Blocking Buffer (25 mM Tris HCl, pH7.5, 150 mM NaCl, 1.5% BSA, 0.05% Tween), and blocked with Blocking Buffer for 2 hours at 37 C or 5 hours at RT using 200 ul per well. The Blocking Buffer was removed and either MAdCAM-1 or VCAM-1 at 400 ng/well in Blocking Buffer was added and the plate incubated overnight at 4C (100 ul per well). The plate was washed two times with Blocking Buffer, and rinsed once with 200 ul Binding Media (DMEM phenol red free, 10 mM HEPES, 1×Na pyruvate, 1× Glutamine, and supplemented with 1 mM MnCl2 prior to use). To prepare cells, approximately 25 million CD4+/CD45RO+ memory T cells were counted by trypan blue exclusion using a haemocytometer to determine viability and cell count. […] Fluorescence intensity was measured using a Molecular Devices Gemini EM Fluorescent Plate Reader (Ex 485/Em530, Bottom Read, Reading Sensitivity=20). IC50 curves are generated using Graph Pad Prism and the curves analyzed using analyzed using a non-linear regression (four parameters) algorithm. […]

FIG. 5 = assay: FIG. 5
Source text: Table printed on a drawing sheet, FIG. 5
Footnotes: SIF- simulated intestinal fluid (porcine) / RIW- rat intestinal wash / HIF- human intestinal fluid / CW- colonic wash (rat) / IMH- intestinal mucosal homogenate (rat) / CMG- colonic mucosal homogenate (rat) / SGF- simulated gastric fluid (porcine) / Hu S9- human intestinal S9 fraction / RL S9- rat liver S9
First reader's note: The first column is printed empty in all rows, so no substance name appears on the sheet; the column head reads CMH while the legend prints CMG.

[1] = Tissue exposure after oral administration, 8 days; type: in vivo; conditions: cynomolgus monkey; for level at time molar at 4 h: 4 hours after the last dose
Procedure: To determine tissue exposure following oral administration of Peptide X, Cynomolgus monkeys were dosed with Peptide X PO QD for 8 days at 12.5 mg/kg, 25 mg/kg or 75 mg/kg. The vehicle was 50 mM phosphate buffer, pH 7. Oral bioavailability in cyno (% F) was about 0.3%. Samples were collected 4 hours after the last dose.

αLβ2 = αLβ2 (Homo sapiens, UniProt P05107+P20701); assay: PBMC memory T cell adhesion to ICAM-1; type: cell-based; set-up: endogenous in cells; conditions: memory T cells isolated from human PBMC donors; read-out: IC50 (nM), memory T cells, Ligand ICAM-1
[2] = tested on: C57BL/6 male mice, DSS colitis; type: in vivo
Procedure: Colitis was induced in C57BL/6 male mice (10 animals per group) by exposure to 3% DSS-treated drinking water from day 0 to day 5, when animals were shifted to normal drinking water. Once daily, animal deaths were recorded, and surviving animals were weighed and assessed visually for the presence of diarrhea and/or bloody stool. Immediately prior to sacrifice on day 9, colitis severity was assessed in all animals using video endoscopy, and the resulting images were scored for colitis severity by an observer blinded to group identity.
Starting on day 0, mice were given twice-daily oral doses of either a vehicle/sham control (Group 1) or Peptide X (Group 2: 10 mg/kg, PO, BID). On day 9, only the AM treatment dose was administered. Animals in Group 2 also were administered Peptide X in their drinking water at a concentration of 0.2 mg/mL. The drinking water bottle weights for Groups 1 and 2 were measured, and water consumption was used to estimate the peptide dose ingested via the drinking water. Based on daily water consumption, the average daily Peptide X dose from the combination of oral gavage and drinking water was estimated to be 49 mg/kg.
Mice were sacrificed on day 9, approximately four hours after the final of gavage dose administration. Spleen, Peyer's patches (PP), mesenteric lymph nodes (MLN), and blood were collected from each animal and processed for FACS analysis of α4 and β7 expression on TH memory cells. Takedown and FACS analysis occurred on the same day.
For PK measurements, colon sections from the proximal and distal colon were collected at ˜4 hours after the last AM dose and analyzed by mass spectrometry. Exposure in the proximal colon was approximately 3-fold higher than that in the distal colon (FIG. 12). The concentration of Peptide X in the blood was 84-fold and 31-fold lower compared to that in the proximal and distal colon, respectively. Nonetheless at this time point, the plasma concentration was ˜80-fold greater than the Peptide IC50 value for blocking α4β7 binding to MAdCAM.

[3] = 10 mg/kg PO BID plus 0.2 mg/mL in drinking water, day 9

Chain of αLβ2 (P20701 26-1170): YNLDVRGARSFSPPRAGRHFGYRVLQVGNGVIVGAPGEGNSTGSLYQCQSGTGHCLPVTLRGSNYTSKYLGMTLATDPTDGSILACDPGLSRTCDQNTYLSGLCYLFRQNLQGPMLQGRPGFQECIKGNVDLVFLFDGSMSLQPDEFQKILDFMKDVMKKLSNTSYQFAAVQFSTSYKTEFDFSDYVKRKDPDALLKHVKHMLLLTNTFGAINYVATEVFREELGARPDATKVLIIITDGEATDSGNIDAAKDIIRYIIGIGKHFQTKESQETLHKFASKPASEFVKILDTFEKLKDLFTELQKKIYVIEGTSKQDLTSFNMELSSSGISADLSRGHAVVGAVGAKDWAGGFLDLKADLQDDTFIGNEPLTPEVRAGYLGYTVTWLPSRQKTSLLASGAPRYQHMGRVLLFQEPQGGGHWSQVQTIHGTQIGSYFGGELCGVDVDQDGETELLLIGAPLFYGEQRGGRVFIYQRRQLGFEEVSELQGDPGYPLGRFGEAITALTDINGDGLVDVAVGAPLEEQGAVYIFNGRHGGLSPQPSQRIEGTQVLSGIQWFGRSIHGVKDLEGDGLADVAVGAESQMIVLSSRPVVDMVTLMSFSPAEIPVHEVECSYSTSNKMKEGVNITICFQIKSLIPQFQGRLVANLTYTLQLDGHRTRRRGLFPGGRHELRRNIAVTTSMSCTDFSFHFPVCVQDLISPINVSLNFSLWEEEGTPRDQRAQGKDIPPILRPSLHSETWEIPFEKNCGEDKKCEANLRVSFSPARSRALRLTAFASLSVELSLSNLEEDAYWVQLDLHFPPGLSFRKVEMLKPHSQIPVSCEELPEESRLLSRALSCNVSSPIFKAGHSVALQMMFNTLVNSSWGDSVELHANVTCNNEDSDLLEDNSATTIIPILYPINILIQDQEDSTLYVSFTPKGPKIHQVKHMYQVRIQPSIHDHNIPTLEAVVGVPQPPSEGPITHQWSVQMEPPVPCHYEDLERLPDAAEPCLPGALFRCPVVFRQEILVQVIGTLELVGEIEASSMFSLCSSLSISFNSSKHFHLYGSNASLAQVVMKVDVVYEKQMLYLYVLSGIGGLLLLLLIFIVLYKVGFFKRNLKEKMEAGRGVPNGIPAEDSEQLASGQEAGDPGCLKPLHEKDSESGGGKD
Chain of αLβ2 (P05107 23-769): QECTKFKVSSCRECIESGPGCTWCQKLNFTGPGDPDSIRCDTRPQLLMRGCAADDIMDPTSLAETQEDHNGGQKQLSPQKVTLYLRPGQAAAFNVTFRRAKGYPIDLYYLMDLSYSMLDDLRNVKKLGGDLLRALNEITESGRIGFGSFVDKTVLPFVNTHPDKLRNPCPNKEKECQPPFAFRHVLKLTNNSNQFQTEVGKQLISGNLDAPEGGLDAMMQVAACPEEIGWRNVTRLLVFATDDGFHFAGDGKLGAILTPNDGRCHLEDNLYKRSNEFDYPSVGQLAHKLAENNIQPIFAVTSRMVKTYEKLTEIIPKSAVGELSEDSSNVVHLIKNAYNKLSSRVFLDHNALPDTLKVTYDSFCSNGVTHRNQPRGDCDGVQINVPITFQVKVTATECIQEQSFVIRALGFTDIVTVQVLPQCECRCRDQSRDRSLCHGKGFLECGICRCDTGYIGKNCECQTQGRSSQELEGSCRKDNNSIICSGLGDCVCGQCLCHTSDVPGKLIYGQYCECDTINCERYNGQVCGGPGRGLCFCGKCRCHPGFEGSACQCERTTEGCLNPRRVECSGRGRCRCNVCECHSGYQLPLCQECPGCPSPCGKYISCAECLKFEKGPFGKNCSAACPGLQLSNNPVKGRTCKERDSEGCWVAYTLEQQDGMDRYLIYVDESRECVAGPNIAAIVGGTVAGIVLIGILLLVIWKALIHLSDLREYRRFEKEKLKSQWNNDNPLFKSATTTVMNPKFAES
Chain of α4β1 (P13612 34-1032): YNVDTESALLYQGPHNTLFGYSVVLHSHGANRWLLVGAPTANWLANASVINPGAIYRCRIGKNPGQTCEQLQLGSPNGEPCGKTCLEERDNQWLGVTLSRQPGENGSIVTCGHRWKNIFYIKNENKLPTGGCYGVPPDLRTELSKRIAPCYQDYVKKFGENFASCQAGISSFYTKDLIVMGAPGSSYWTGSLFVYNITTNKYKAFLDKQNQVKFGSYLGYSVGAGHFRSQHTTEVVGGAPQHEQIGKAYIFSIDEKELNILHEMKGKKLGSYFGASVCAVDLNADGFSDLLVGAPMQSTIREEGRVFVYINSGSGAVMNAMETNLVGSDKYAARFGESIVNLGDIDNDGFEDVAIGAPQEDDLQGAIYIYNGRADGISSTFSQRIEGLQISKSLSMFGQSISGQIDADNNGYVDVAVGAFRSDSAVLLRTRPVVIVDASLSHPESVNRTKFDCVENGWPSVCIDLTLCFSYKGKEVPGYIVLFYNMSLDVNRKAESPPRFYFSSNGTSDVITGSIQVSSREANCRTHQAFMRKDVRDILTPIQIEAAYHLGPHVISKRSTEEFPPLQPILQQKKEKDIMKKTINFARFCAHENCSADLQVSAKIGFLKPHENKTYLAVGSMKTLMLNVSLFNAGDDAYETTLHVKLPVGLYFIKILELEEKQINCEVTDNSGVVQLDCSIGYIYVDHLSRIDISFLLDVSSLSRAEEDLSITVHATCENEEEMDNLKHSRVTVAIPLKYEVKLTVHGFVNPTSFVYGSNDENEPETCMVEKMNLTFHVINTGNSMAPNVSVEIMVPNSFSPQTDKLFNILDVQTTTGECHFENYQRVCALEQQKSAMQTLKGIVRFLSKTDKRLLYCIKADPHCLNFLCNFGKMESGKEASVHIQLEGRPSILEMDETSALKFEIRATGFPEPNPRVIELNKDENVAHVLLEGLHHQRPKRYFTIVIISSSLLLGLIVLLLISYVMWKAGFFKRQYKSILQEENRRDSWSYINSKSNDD
Chain of α4β1 (P05556 21-798): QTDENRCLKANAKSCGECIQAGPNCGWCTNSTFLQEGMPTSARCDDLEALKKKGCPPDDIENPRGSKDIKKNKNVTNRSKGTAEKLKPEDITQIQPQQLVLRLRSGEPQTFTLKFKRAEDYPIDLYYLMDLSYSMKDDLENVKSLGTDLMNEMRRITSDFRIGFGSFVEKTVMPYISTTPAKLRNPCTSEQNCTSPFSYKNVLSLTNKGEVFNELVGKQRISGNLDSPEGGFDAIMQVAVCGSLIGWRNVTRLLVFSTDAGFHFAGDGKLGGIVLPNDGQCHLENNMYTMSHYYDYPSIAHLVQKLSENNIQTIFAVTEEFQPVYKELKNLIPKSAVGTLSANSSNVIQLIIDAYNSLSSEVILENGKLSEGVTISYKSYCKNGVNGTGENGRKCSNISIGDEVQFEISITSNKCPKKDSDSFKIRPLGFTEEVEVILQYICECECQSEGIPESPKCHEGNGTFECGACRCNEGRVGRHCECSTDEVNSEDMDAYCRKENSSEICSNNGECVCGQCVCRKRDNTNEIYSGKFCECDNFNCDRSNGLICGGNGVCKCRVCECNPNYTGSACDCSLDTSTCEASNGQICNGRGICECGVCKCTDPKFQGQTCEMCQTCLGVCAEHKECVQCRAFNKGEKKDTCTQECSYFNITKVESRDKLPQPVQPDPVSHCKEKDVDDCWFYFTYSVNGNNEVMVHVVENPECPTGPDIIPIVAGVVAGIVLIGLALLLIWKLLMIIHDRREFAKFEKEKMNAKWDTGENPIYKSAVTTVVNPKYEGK

SMILES: CC(=O)N[C@@H]1C(=O)N(C)[C@@H](CCCNC(=N)N)C(=O)N[C@@H](CO)C(=O)N[C@@H](CC(=O)O)C(=O)N[C@@H](C(C)O)C(=O)N[C@@H](CC(C)C)C(=O)N[C@H](C(=O)N[C@@H](Cc2ccc(C(C)(C)C)cc2)C(=O)N[C@@H](CCC(=O)O)CC(=O)N[C@H](CCCCNC(=O)COCC(=O)NCCCC[C@@H](NC(=O)C[C@H](CCC(=O)O)NC(=O)[C@H](Cc2ccc(C(C)(C)C)cc2)NC(=O)[C@H]2NC(=O)[C@H](CC(C)C)NC(=O)[C@H](C(C)O)NC(=O)[C@H](CC(=O)O)NC(=O)[C@H](CO)NC(=O)[C@H](CCCNC(=N)N)N(C)C(=O)[C@@H](NC(C)=O)C(C)(C)SSC2(C)C)C(N)=O)C(N)=O)C(C)(C)SSC1(C)C (stereo partly drawn) [Peptide X, [Ac-Pen-(N-Me-Arg)-Ser-Asp-Thr-Leu-Pen-(Phe(4-tBu))-(β-homoGlu)-(D-Lys)]2-DIG] (I: Ac-[Pen][NMeR]SD[Thr(3ξ)]L[Pen][Phe(4-tBu)][β3hE][dK]-NH2 / II: Ac-[Pen][NMeR]SD[Thr(3ξ)]L[Pen][Phe(4-tBu)][β3hE][dK]-NH2; disulfide I:1-I:7, II:1-II:7; linker I:10-II:10 via Diglycolyl)
- IC50 (α4β1): > 100000 nM
- Intestinal half-life | CMH (FIG. 5): >6 h
- Intestinal half-life | CW (FIG. 5): >6 h
- Intestinal half-life | HIF (FIG. 5): >24 h
- Intestinal half-life | IMH (FIG. 5): >6 h
- Intestinal half-life | SIF (FIG. 5): 11 h
- Metabolism | Hu S9 (FIG. 5): >6 h
- Metabolism | RL S9 (FIG. 5): >6 h
- level at time molar at 4 h ([1]; colon, 12.5 mg/kg PO QD 8 days, read-out: Peptide X exposure, Colon): 4160 nM
- level at time molar at 4 h ([1]; colon, 25 mg/kg PO QD 8 days, read-out: Peptide X exposure, Colon): 1550 nM
- level at time molar at 4 h ([1]; colon, 75 mg/kg PO QD 8 days, read-out: Peptide X exposure, Colon): 15500 nM
- bioavailability ([1]; in vivo, oral, read-out: Oral bioavailability in cyno (% F)): ~0.3%
- level at time molar at 4 h ([1]; mesenteric lymph node, 12.5 mg/kg PO QD 8 days, read-out: Peptide X exposure, Mesenteric Lymph Node): 1500 nM
- level at time molar at 4 h ([1]; mesenteric lymph node, 25 mg/kg PO QD 8 days, read-out: Peptide X exposure, Mesenteric Lymph Node): 138 nM
- level at time molar at 4 h ([1]; mesenteric lymph node, 75 mg/kg PO QD 8 days, read-out: Peptide X exposure, Mesenteric Lymph Node): 1980 nM
- level at time molar at 4 h ([1]; plasma, 12.5 mg/kg PO QD 8 days, read-out: Peptide X exposure, Plasma): 2 nM
- level at time molar at 4 h ([1]; plasma, 25 mg/kg PO QD 8 days, read-out: Peptide X exposure, Plasma): 5 nM
- level at time molar at 4 h ([1]; plasma, 75 mg/kg PO QD 8 days, read-out: Peptide X exposure, Plasma): 21 nM
- level at time molar at 4 h ([1]; small intestine, 12.5 mg/kg PO QD 8 days, read-out: Peptide X exposure, Small Intestine): 661 nM
- level at time molar at 4 h ([1]; small intestine, 25 mg/kg PO QD 8 days, read-out: Peptide X exposure, Small Intestine): 293 nM
- level at time molar at 4 h ([1]; small intestine, 75 mg/kg PO QD 8 days, read-out: Peptide X exposure, Small Intestine): 7840 nM
- IC50 (αLβ2): > 100000 nM
- endoscopy score (mean±SD) [2, 3]: 1.78±1.5
- reduction of endoscopy scores vs vehicle [2, 3]: 32%
- effect on weight loss, fluid intake, colon weight or length, presence of bloody stool and diarrhea ([2]; 10 mg/kg PO BID plus drinking water): no significant effect
- visual assessment of endoscopy images ([2]; compared to the vehicle control): reduced colonic friability and improved mucosal healing
- Exposure in the proximal colon higher than in the distal colon ([2]; mouse, in vivo): approximately 3 fold
- decrease in percentage of α4β7+ memory cells relative to total cells in Peyer's Patches ([2]; vs vehicle, day 9): 55%
- decrease in percentage of α4β7+ memory cells relative to total cells in the MLN ([2]; vs vehicle, day 9): 23%
- increase in total α4β7 memory cells per mL blood ([2]; vs vehicle, day 9): 42%
- increase in total α4β7 memory cells recovered from the spleen ([2]; vs vehicle, day 9): 73%
